Source: patent US10253081B2, “Glucagon analogues” (Zealand Pharma A/S, priority 2012, dated 2019)
*1 amine or outer side, *2 acyl side, *3 side chain or, on linkers, in order; H or OH if unused. Where a SMILES comes first, the peptide text is derived from it. Side-chain parts run from the residue outwards. [ ]: non-standard residue; d: D form. The star is where a group is joined. γGlu = O=C(O)[C@H](CCC(=O)[*:2])N[*:1]; Palmitoyl = CCCCCCCCCCCCCCCC(=O)*; Aib = CC(C)(N)C(=O)O

Legend:
Type in all cases: cell-based
[1] = molecular target: T1, endogenous GLP-1 receptors (Mus musculus, UniProt O35659); assay: Agonistic activity on endogenous GLP-1 receptor (cAMP, murine insulinoma cell line); settings: intracellular cAMP, 15 minutes at 26° C.; read-out: EC50 GLP-1R (murine insulinoma cells)
T1 construct: Agonistic activity of the test compounds on endogenous GLP-1 receptors; endogenous in cells
T1 sequence (O35659 22-463): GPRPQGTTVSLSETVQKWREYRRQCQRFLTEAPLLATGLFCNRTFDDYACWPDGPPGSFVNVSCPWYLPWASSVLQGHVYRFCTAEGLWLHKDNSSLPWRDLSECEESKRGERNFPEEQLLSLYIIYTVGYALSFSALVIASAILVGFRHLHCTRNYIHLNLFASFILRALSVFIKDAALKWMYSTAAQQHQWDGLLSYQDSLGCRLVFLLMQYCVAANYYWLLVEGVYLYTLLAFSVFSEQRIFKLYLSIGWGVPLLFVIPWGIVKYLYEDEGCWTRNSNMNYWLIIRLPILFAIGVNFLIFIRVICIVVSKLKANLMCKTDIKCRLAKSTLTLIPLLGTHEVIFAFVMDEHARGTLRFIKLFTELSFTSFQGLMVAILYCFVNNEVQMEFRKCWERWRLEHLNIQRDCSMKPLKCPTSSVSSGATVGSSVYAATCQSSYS
Protocol: Agonistic activity of the test compounds on endogenous GLP-1 receptors was determined using a murine insulinoma cell line. Intracellular cAMP was used an indicator of receptor activation.
Cells were cultured for 24 h at a density of 10,000 cells/well in a 384-well plate. Medium was removed and 10 μL KRBH buffer (NaCl 130 mM, KCl 3.6 mM, NaH2PO4 0.5 mM, MgSO4 0.5 mM, CaCl2) 1.5 mM) containing test compound or GLP-1 (at increasing concentrations from […] to 100 nM) or solvent control (0.1% (v/v) DMSO) was added to the wells for 15 minutes at a temperature of 26° C.
The cellular cAMP content is measured using the AlphaScreen cAMP Functional Assay Kit (Perkin Elmer). Measurement was performed using the Envision (PerkinElmer) according to manufacturer's recommendations.
All measurements were performed in quadruplicate.
Results were converted into cAMP concentrations using a cAMP standard curve prepared in KRBH buffer containing 0.1% (v/v) DMSO. The resulting cAMP curves were plotted as absolute cAMP concentrations (nM) over log (test compound concentration) and analyzed using the curve fitting program XLfit.
Parameters calculated to describe the both the potency as well as the agonistic activity of each test compound on the endogenous GLP-1 receptors were:
pEC50 (negative logarithmic value of EC50, a concentration resulting in a half-maximal elevation of cAMP levels, reflecting the potency of the test compound);
Percent control (% CTL)(% cAMP elevation for each test compound concentration normalized based on the GLP-1-induced maximum cAMP response (100% CTL)).

[2] = molecular target: T2, human glucagon receptor (Glucagon-R) (Homo sapiens, UniProt P47871); assay: Glucagon receptor efficacy assay (cAMP AlphaScreen, CHO cells); settings: Table 1B; same protocol, different laboratory; read-out: EC50 hGCGR CHO-K1
T2 construct: expressed in transfected cells
T2 sequence (P47871 26-477): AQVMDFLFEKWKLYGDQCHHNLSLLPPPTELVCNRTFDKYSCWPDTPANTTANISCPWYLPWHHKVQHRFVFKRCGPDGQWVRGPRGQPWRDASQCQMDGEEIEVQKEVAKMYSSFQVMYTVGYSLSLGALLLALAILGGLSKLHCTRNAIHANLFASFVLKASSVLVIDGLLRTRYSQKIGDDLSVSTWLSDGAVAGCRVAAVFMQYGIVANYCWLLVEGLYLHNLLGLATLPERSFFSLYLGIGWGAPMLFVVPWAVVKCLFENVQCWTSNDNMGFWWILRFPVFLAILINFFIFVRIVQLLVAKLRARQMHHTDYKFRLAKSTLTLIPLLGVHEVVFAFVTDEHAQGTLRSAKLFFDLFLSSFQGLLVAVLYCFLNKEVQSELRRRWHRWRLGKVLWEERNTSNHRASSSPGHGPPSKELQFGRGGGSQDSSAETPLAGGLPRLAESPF
Excerpt: (§1) The cDNA encoding either the human glucagon receptor (Glucagon-R) (primary accession number P47871) or the human glucagon-like peptide 1 receptor (GLP-1R) (primary accession number P43220) were synthesized and cloned into a mammalian expression vector containing a Zeocin resistance marker.
(§2) The mammalian expression vectors encoding the Glucagon-R or the GLP-1-R were transfected into Chinese hamster ovary (CHO) cells by the Attractene method method. Stably expressing clones were obtained by Zeocin selection (250 μg/mL) upon limited dilution of cells resistant to the selection pressure. Glucagon-R and GLP-1-R cell clones expressing were picked, propagated and tested in the Glucagon-R and GLP-1-R efficacy assays as described below. One Glucagon-R expressing clone and one GLP-1-R expressing clone were chosen for compound profiling.
(§3) CHO cells expressing the human Glucagon-R, or human GLP-1-R were seeded 24 hours prior to the assay at 30,000 cells per well in 96-well microtiter plates in culture in 100 μl growth medium. On the day of analysis, growth medium was removed and the cells were washed once with 200 μl of assay buffer (Krebs-Ringer-buffer—KRBH). The buffer was removed and the cells were incubated for 15 min at room temperature in 10 μl KRBH (KRBH+10 mM HEPES, 5 mM NaHCO3, 0.1% (V/V) BSA) with 0.1 mM IBMX in deionized water containing increasing concentrations of test peptides. The reaction was stopped by the addition of lysis buffer (0.1% w/v BSA, 5 mM HEPES, 0.3% v/v Tween-20). After cell lysis for 10 min at room temperature, lysates were transferred to 384-well plates and 10 μl of acceptor/donorbead mixture as contained in the AlphaScreen™ cAMP Functional Assay Kit was added. After one hour of incubation at room temperature in the dark, the cAMP content was determined applying the AlphaScreen™ cAMP Functional Assay Kit from Perkin-Elmer according to manufacturer instructions. EC50 and relative efficacies compared to reference compounds (glucagon and GLP-1) were calculated applying computer aided curve fitting. The GLP-1/glucagon ratio is calculated as defined earlier.

[3] = molecular target: T3, human glucagon-like peptide 1 receptor (GLP-1R) (Homo sapiens, UniProt P43220); assay: GLP-1 receptor efficacy assay (cAMP AlphaScreen, CHO cells); settings: Table 1B; for Ratio GLP-1/Glucagon: EC50 [GLP-1R]/EC50 [Glucagon-R]; for EC50: same protocol, different laboratory, read-out: EC50 hGLP-1R CHO-K1
T3 construct: expressed in transfected cells
T3 sequence (P43220 24-463): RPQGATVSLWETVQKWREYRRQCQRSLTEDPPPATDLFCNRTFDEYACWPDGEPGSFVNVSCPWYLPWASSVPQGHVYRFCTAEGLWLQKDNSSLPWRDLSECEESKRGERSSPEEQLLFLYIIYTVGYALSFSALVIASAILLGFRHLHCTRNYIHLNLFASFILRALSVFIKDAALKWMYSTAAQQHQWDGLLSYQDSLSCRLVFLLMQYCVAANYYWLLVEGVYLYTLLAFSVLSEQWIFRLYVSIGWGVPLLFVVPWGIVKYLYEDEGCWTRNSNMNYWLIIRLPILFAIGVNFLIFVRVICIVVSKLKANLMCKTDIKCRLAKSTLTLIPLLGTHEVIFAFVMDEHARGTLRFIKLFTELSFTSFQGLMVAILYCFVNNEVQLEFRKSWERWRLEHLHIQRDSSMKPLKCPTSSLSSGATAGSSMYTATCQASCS
Excerpt: as §1, §2, §3

[4] = molecular target: T4, endogenous glucagon receptor (Rattus norvegicus, UniProt P30082); assay: Agonistic activity on endogenous glucagon receptor (glycogen synthesis rate in primary rat hepatocytes); settings: inhibition of glycogen synthesis rate, 3 hours, read-out: EC50 GLP-1R Rat hepat.
T4 construct: Agonistic activity of the test compounds on endogenous glucagon receptor; endogenous in cells; host or cells: primary rat hepatocytes
T4 sequence (P30082 27-485): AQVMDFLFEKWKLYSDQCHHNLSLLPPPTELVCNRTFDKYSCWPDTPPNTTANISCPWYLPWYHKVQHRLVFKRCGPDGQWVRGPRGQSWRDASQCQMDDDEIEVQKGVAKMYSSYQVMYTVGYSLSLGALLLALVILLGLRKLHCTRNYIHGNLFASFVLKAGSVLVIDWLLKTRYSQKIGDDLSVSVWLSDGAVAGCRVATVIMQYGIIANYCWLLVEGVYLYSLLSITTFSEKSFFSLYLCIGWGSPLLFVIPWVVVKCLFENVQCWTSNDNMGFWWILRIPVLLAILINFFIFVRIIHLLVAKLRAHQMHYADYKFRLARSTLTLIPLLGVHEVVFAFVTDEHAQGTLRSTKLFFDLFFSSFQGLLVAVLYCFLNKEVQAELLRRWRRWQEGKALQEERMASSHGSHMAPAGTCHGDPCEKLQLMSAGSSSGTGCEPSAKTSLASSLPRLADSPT
Protocol: Agonistic activity of the test compounds on endogenous glucagon receptor was determined by measuring their effect on rate of glycogen synthesis in primary rat hepatocytes. Upon activation of the glucagon receptor, an inhibition of the glycogen synthesis rate is expected. Rate of glycogen synthesis was determined by counting the amount of radioactively labeled glucose incorporated into the cellular glycogen stores in a defined period of time.
Primary rat hepatocytes were cultured at a density of 40,000 cells/well in a 24-well plate for 24 hours at 37° C. and 5% CO2.
Medium was discarded and the cells washed with PBS. 180 μL of KRBH-based buffer containing 0.1% BSA and glucose at a concentration of 22.5 mM was then added to the wells, followed by test compound and 40 μCi/ml D-[U14C] glucose (20 μL each). Incubation was continued for 3 hours.
At the end of the incubation period, the incubation buffer was aspirated and cells washed once with ice-cold PBS before lysis by incubation for 30 min at room temperature with 100 μL 1 mol/l NaOH.
Cell lysates were transferred to 96-well filter plates and glycogen precipitated by incubating the filter-plates for 120 min at 4° C. followed by washing the filter plates 4 times with ice-cold ethanol (70%). The resulting precipitates were filtered to dryness and the amount of incorporated ^14C-glucose determined by using a Topcount scintillation counter according to manufacturer's recommendations.
Wells with vehicle controls (0.1% (v/v) DMSO in KRBH buffer) were included as reference for non-inhibited glycogen synthesis (100% CTL). Wells without added D-[U^14C] glucose were included as controls for non-specific background signal (subtracted from all values). Endogenous glucagon peptide was used as a positive control.
All treatments were performed at least in triplicates.
Parameters calculated to describe the both the potency as well as the agonistic activity of each test compound on the endogenous glucagon receptor are pEC50 and % CTL. % CTL is determined by calculating the percentage of CPM/well in the presence of the test compound compared to the CPM/well of the vehicle control after subtracting the background CPM/well: [CPM/well(basal)−CPM/well(sample)]*100/[CPM/well(basal)−CPM/well(control)]
An activator of the glucagon receptor will result in an inhibition of the glycogen synthesis rate and will give % CTL values between 0% CTL (complete inhibition) and 100% CTL (no observable inhibition).
The resulting activity curves were plotted as absolute counts (unit: cpm/sample) over log (test compound concentration) and analyzed using the curve fitting program XLfit.
pEC50 (negative logarithmic value of EC50) reflects the potency of the test compound.
The terms EC50 and pEC50 quoted in relation to GLP-1R activation could equally be regarded as IC50 and pIC50 in relation to glycogen synthesis.

Structure (SMILES) | EC50 [1] | EC50 [2] | Ratio GLP-1/Glucagon [3] | EC50 [3] | EC50 [4]
CCCCCCCCCCCCCCCC(=O)N[C@@H](CCC(=O)NCCCC[C@H](NC(=O)[C@H](CCC(=O)O)NC(=O)[C@H](CCC(=O)O)NC(=O)[C@H](CC(C)C)NC(=O)[C@H](Cc1ccc(O)cc1)NC(=O)[C@H](CCCCN)NC(=O)[C@H](CO)NC(=O)[C@H](Cc1ccc(O)cc1)NC(=O)[C@H](CC(=O)O)NC(=O)[C@H](CO)NC(=O)[C@@H](NC(=O)[C@H](Cc1ccccc1)NC(=O)[C@@H](NC(=O)CNC(=O)[C@H](Cc1c[nH]cn1)NC(=O)C(C)(C)NC(=O)[C@@H](N)Cc1c[nH]cn1)[C@@H](C)O)[C@@H](C)O)C(=O)N[C@@H](C)C(=O)N[C@@H](C)C(=O)N[C@@H](Cc1c[nH]cn1)C(=O)N[C@@H](CCC(=O)O)C(=O)N[C@@H](Cc1ccccc1)C(=O)N[C@H](C(=O)N[C@@H](CCC(=O)O)C(=O)N[C@@H](Cc1c[nH]c2ccccc12)C(=O)N[C@@H](CC(C)C)C(=O)N[C@@H](CCC(=O)O)C(=O)N[C@@H](CO)C(=O)N[C@@H](C)C(N)=O)C(C)C)C(=O)O [Compound 19, H-H-Aib-HGTFTSDYSKYLEE-K(Hexadecanoyl-isoGlu)-AAHEFVEWLESA-NH2] (H-H[Aib]HGTFTSDYSKYLEEK([γGlu-Palmitoyl])AAHEFVEWLESA-NH2) | 0.33 nM | 0.08 nM | 3.38 | 0.27 nM | 0.06 nM
CCCCCCCCCCCCCCCC(=O)N[C@@H](CCC(=O)NCCCC[C@H](NC(=O)[C@H](CCC(=O)O)NC(=O)[C@H](CCC(=O)O)NC(=O)[C@H](CC(C)C)NC(=O)[C@H](Cc1ccc(O)cc1)NC(=O)[C@H](CCCCN)NC(=O)[C@H](CO)NC(=O)[C@H](Cc1ccc(O)cc1)NC(=O)[C@H](CC(=O)O)NC(=O)[C@H](CO)NC(=O)[C@@H](NC(=O)[C@H](Cc1ccccc1)NC(=O)[C@@H](NC(=O)CNC(=O)[C@H](CCC(N)=O)NC(=O)[C@H](CO)NC(=O)[C@@H](N)Cc1c[nH]cn1)[C@@H](C)O)[C@@H](C)O)C(=O)N[C@@H](C)C(=O)N[C@@H](C)C(=O)N[C@@H](CCCCN)C(=O)N[C@@H](CC(=O)O)C(=O)N[C@@H](Cc1ccccc1)C(=O)N[C@H](C(=O)N[C@@H](CCC(=O)O)C(=O)N[C@@H](Cc1c[nH]c2ccccc12)C(=O)N[C@@H](CC(C)C)C(=O)N[C@@H](CCC(=O)O)C(=O)N[C@@H](CO)C(=O)N[C@@H](C)C(N)=O)[C@@H](C)CC)C(=O)O [Compound 22, H-HSQGTFTSDYSKYLEE-K(Hexadecanoyl-isoGlu)-AAKDFIEWLESA-NH2] (H-HSQGTFTSDYSKYLEEK([γGlu-Palmitoyl])AAKDFIEWLESA-NH2) | 0.35 nM | 0.1 nM | 2.40 | 0.24 nM | 0.28 nM
CCCCCCCCCCCCCCCC(=O)N[C@@H](CCC(=O)NCCCC[C@H](NC(=O)[C@H](CO)NC(=O)[C@H](CCC(=O)O)NC(=O)[C@H](CC(C)C)NC(=O)[C@H](Cc1ccc(O)cc1)NC(=O)[C@H](CCCCN)NC(=O)[C@H](CO)NC(=O)[C@H](Cc1ccc(O)cc1)NC(=O)[C@H](CC(=O)O)NC(=O)[C@H](CO)NC(=O)[C@@H](NC(=O)[C@H](Cc1ccccc1)NC(=O)[C@@H](NC(=O)CNC(=O)[C@H](Cc1c[nH]cn1)NC(=O)C(C)(C)NC(=O)[C@@H](N)Cc1c[nH]cn1)[C@@H](C)O)[C@@H](C)O)C(=O)N[C@@H](C)C(=O)N[C@@H](C)C(=O)N[C@@H](CCC(=O)O)C(=O)N[C@@H](CCC(=O)O)C(=O)N[C@@H](Cc1ccccc1)C(=O)N[C@H](C(=O)N[C@@H](CCC(=O)O)C(=O)N[C@@H](Cc1c[nH]c2ccccc12)C(=O)N[C@@H](CC(C)C)C(=O)N[C@@H](CCC(=O)O)C(=O)N[C@@H](CO)C(=O)N[C@@H](C)C(=O)O)[C@@H](C)CC)C(=O)O [Compound 17, H-H-Aib-HGTFTSDYSKYLES-K(Hexadecanoyl-isoGlu)-AAEEFIEWLESA-OH] (H-H[Aib]HGTFTSDYSKYLESK([γGlu-Palmitoyl])AAEEFIEWLESA-OH) | 0.89 nM | 0.05 nM | 4.6 | 0.23 nM | 0.18 nM
